Target: Substance-P receptor (Homo sapiens, UniProt P25103)
Experiment: Compound was evaluated for binding affinity towards neurokinin NK1 receptor.

Chain of Substance-P receptor (P25103 whole entry): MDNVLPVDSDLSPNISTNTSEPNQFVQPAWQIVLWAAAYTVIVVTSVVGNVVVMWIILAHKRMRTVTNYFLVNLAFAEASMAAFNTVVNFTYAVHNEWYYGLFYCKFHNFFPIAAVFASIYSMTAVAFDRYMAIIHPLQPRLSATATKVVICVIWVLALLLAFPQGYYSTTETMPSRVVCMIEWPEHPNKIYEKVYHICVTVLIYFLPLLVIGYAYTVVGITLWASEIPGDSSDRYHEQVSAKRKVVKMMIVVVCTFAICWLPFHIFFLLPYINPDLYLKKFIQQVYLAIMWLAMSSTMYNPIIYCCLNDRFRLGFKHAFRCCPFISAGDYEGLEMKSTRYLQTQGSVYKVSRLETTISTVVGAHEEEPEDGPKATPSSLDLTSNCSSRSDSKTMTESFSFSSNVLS

Row | SMILES | Ki [nM]
1 | COc1ccccc1CN[C@@H]1C2CCNC1(c1ccccc1)CC=C2C (some centres not stated) | > 3160
2 | COc1ccccc1CN[C@H]1C2CCNC1(c1ccccc1)CC=C2C (some centres not stated) | 0.631

— ChEMBL document CHEMBL1129718, “Morphan based substance P antagonists” (Bioorg Med Chem Lett, 1996)
